Reference: paper PMC10888562 (International Journal of Molecular Sciences, 2024)
“And” between values parts separate entries of the source, which are not always exact repeats. Identical values can stand only once.

Assays:
HT29 colon = assay: MTT cell viability assay (GI50), HT29; assay type: cell-based, human; conditions: for SCI: GI50 (MCF10A)/GI50 (HT29); for GI50: MTT
U87 glioblastoma = assay: MTT cell viability assay (GI50), U87; assay type: cell-based, human; conditions: for SCI: GI50 (MCF10A)/GI50 (U87); for GI50: U87 glioblastoma, MTT
H460 lung = assay: MTT cell viability assay (GI50), H460; assay type: cell-based, human; conditions: for SCI: GI50 (MCF10A)/GI50 (H460); for GI50: H460 lung, MTT
A431 skin = assay: MTT cell viability assay (GI50), A431; assay type: cell-based, human; conditions: for SCI: GI50 (MCF10A)/GI50 (A431); for GI50: A431 skin, MTT
BE2-C neuroblastoma = assay: MTT cell viability assay (GI50), BE2-C; assay type: cell-based, human; conditions: for SCI: GI50 (MCF10A)/GI50 (BE2-C); for GI50: BE2-C neuroblastoma, MTT
SJ-G2 glioblastoma = assay: MTT cell viability assay (GI50), SJ-G2; assay type: cell-based, human; conditions: for SCI: GI50 (MCF10A)/GI50 (SJ-G2); for GI50: SJ-G2 glioblastoma, MTT
MIA pancreas = assay: MTT cell viability assay (GI50), MIA; assay type: cell-based, human; conditions: for SCI: GI50 (MCF10A)/GI50 (MIA); for GI50: MIA pancreas, MTT
[1] = tested on: cisplatin-resistant ADDP ovarian variant; assay: MTT cell viability assay (GI50), ADDP; assay type: cell-based, human; conditions: for SCI: GI50 (MCF10A)/GI50 (ADDP); for GI50: cisplatin-resistant ADDP ovarian variant, MTT
HT29 colon cells [2] = assay: DCFDA cellular ROS production assay; assay type: cell-based, human; conditions: GI50 drug concentration (TBHP 20 μM)
Procedure: All values are expressed as relative fluorescence units (RFU).
To evaluate the presence of ROS in treated cells, a DCFDA/H2DCFDA-cellular ROS Assay Kit (Abcam, Cambridge, MA, USA) was used, as previously described. A total of 25,000 cells/mL of HT29 cells in DMEM were seeded in 96-well plates. Cells were washed with 1X kit buffer, and then stained with 25 μM 2′,7′-dichlorofluorescein diacetate (DCFH-DA) and incubated for 45 min. DCFH-DA was then removed, and cells were then re-washed with 1X kit buffer, after which phenol red free media was added. Cells were then treated with a GI50 drug concentration for each complex. The plates were directly scanned to measure fluorescence (relative fluorescence units (RFU)) at the time points indicated the Glo-Max®-Multimode microplate reader (Promega Corporation, Alexandra, VIC, Australia) at an excitation/emission of 485/535 nm, which is directly correlated to the DCFH-DA that is deacetylated by cellular esterases and then oxidised by ROS to the fluorescent compound DCF. To generate the positive control (20 μM tert-butyl hydroperoxide (TBHP)), cells were washed with 1X kit buffer, and stained with DCFDA (25 μM) for 45 min; this was removed and TBHP was added in phenol red free media, and the resulting solution was scanned as described above.

HT29 colon cells [3] = assay: TMRE mitochondrial membrane potential (MtMP) assay; assay type: cell-based, human; conditions: GI50 drug concentration (FCCP 20 μM)
Procedure: This was achieved by determining if the overproduction of ROS induced by these complexes impacts mitochondrial activity by altering MtMP. Briefly, there is evidence showing a strong correlation between increased levels of ROS and mitochondrial impairment. […] The MtMP changes recorded are measured as RFU. […] To investigate the MtMP changes in HT29 treated cells, a TMRE-MtMP Assay Kit (Abcam, Cambridge, MA, USA) was used, as previously described. In 96-well plates, 25,000 cells/mL of HT29 colon cells in DMEM were seeded. Cells were treated with a GI50 drug concentration for each complex. At 24, 48 or 72 h, cells were washed with PBS and stained with tetramethylrhodamine, ethyl ester (TMRE) (1 μM) and incubated for 30 min. TMRE was then removed, and cells were then re-washed with PBS (0.2% BSA), after which phenol red free media was added. The plates were directly scanned to measure fluorescence (expressed as RFU), using the Glo-Max®-Multimode microplate reader (Promega Corporation, Alexandra, VIC, Australia) at an excitation/emission of 549/575 nm. For the positive control, 20 μM carbonyl cyanide 4-(trifluoromethoxy) phenylhydrazone (FCCP)) was added to the cells and incubated for 10 min. The cells were washed with PBS (0.2% BSA) and stained with TMRE (1 μM) for 30 min; this was removed, and phenol red free media was added, and the final solution was scanned as mentioned above.

Du145 prostate = assay: MTT cell viability assay (GI50), Du145; assay type: cell-based, human; conditions: for GI50: MTT; for SCI: GI50 (MCF10A)/GI50 (Du145); for fold more potent than carboplatin / fold more potent than cisplatin / fold more potent than oxaliplatin: GI50 ratio
[4] = tested on: multiple human cell lines; assay: MTT cell viability assay, all cell lines (mean/range of GI50); assay type: cell-based; conditions: for fold decrease of average GI50 relative to the platinum(IV) scaffold: average GI50 of scaffold vs 5B3A derivative, all cell lines; for GI50: average over all cell lines
[5] = Lipophilicity by analytical HPLC (log kw); assay type: physicochemical
Source text: The order of complexes by increasing lipophilicity is P-5B3A < 5-5B3A < 56-5B3A (Table 2 and Figure S27). It can be deduced that increasing methylation on the heterocyclic ligand increased lipophilicity. This trend agrees with published data. The determined log kw values are consistent and within the range of the log kw values determined for similar complexes reported in the literature.
Lipophilicity measurements were completed via analytical HPLC, as previously reported.

[6] = Stability in PBS monitored by analytical HPLC; assay type: physicochemical; conditions: PBS pH ~7.4, ~10 mM, 37 °C, one week, HPLC at 254 nm
Procedure: The stability of P-5B3A, 5-5B3A and 56-5B3A was monitored via analytical HPLC.
The stability of P-5B3A, 5-5B3A and 56-5B3A were measured at 254 nm. Each complex was incubated in aqueous phosphate-buffered saline (PBS) solution (pH ~7.4) (total sample concentration, ~10 mM) at 37 °C for one week. Analytical HPLC was utilised to monitor the experiments.

| Molecule | SCI (HT29 colon) | SCI (U87 glioblastoma) | SCI (H460 lung) | SCI (A431 skin) | SCI (BE2-C neuroblastoma) | SCI (SJ-G2 glioblastoma) | SCI (MIA pancreas) | SCI [1] | ROS Production (HT29 colon cells [2]; 24 h, control 60 ± 3) | ROS Production (HT29 colon cells [2]; 48 h, control 63 ± 4) | ROS Production (HT29 colon cells [2]; 72 h, control 85 ± 6) | MtMP Changes (HT29 colon cells [3]; 24 h, control 542 ± 4) [RFU] | MtMP Changes (HT29 colon cells [3]; 48 h, control 507 ± 11) [RFU] | MtMP Changes (HT29 colon cells [3]; 72 h, control 449 ± 10) [RFU] | GI50 (HT29 colon; HT29 colon) [nM] | GI50 (U87 glioblastoma) [nM] | GI50 (H460 lung) [nM] | GI50 (A431 skin) [nM] | GI50 (Du145 prostate; Du145 prostate) [nM] | SCI (Du145 prostate) | also measured |
| --- | --- | --- | --- | --- | --- | --- | --- | --- | --- | --- | --- | --- | --- | --- | --- | --- | --- | --- | --- | --- | --- |
| N.N.[Cl][Pt][Cl] [Cisplatin, cis-diammineplatinum(II) dichloride] | 0.46 | 1.37 | 5.78 | 2.17 | 2.74 | 13.00 | 0.69 | 0.19 | 265 ± 19 RFU | 299 ± 22 RFU | 364 ± 18 RFU | 232 ± 4 | 230 ± 4 | 192 ± 7 | – | – | – | – | – | – | – |
| [Pt^IV(phen)(SS-DACH)(5B3A)(OH)]^2+ [P-5B3A] | 1.40 | 0.15 | 0.65 | 0.23 | 0.02 | 0.22 | 0.90 | 0.85 | 156 RFU and 156 ± 16 RFU | 214 RFU and 214 ± 12 RFU | 246 ± 11 RFU | 332 ± 7 | 317 ± 7 | 263 ± 5 | 200 ± 27 | 1900 ± 150 | 430 ± 50 | 1200 ± 100 | 190 ± 23 | 1.47 | fold more potent than carboplatin (HT29 colon; HT29 colon, GI50 ratio): ≥ 250 fold; fold more potent than cisplatin (HT29 colon; HT29 colon, GI50 ratio): at least 57 fold; fold more potent than oxaliplatin (HT29 colon; HT29 colon, GI50 ratio): ≥ 5 fold; GI50 (BE2-C neuroblastoma): 13000 nM; GI50 (SJ-G2 glioblastoma): 1300 ± 200 nM; GI50 (MIA pancreas): 310 ± 26 nM; fold more potent than carboplatin ([1]; ADDP, GI50 ratio): 152 fold; fold more potent than cisplatin ([1]; ADDP, GI50 ratio): at least 85 fold; GI50 [1]: 330 ± 8.8 nM; fold larger average GI50 than 5-5B3A ([4]; average GI50, all cell lines): 20 fold; fold larger average GI50 than 56-5B3A ([4]; average GI50, all cell lines): 50 fold; fold decrease of average GI50 relative to the platinum(IV) scaffold [4]: ~1.6 fold; GI50 [4]: 2080 ± 703 nM; log kw Values [5]: 1.82; Stability [6]: adequately stable in aqueous solution for up to 1 week |
| [Pt^IV(5-Mephen)(SS-DACH)(5B3A)(OH)]^2+ [5-5B3A] | 1.06 | 0.08 | 0.63 | 0.20 | 0.06 | 0.10 | 0.61 | 0.83 | 160 RFU and 160 ± 11 RFU | 230 RFU and 230 ± 9 RFU | 315 RFU and 315 ± 14 RFU | 324 ± 9 | 280 ± 12 | 184 ± 4 | 18 ± 0.67 | 240 ± 23 | 30 ± 3 | 93 ± 8 | 10 ± 2 | 1.90 | fold more potent than cisplatin (HT29 colon; HT29 colon, GI50 ratio): ~630 fold; fold more potent than carboplatin (Du145 prostate; Du145 prostate): 1500 fold; fold more potent than cisplatin (Du145 prostate; Du145 prostate): 120 fold; fold more potent than oxaliplatin (Du145 prostate; Du145 prostate): 290 fold; GI50 (BE2-C neuroblastoma): 340 ± 40 nM; GI50 (SJ-G2 glioblastoma): 200 ± 40 nM; GI50 (MIA pancreas): 31 ± 3 nM; fold more potent than cisplatin ([1]; ADDP, GI50 ratio): ~1220 fold; GI50 [1]: 23 ± 0.88 nM; fold lower average GI50 than 5MESS ([4]; average GI50, all cell lines): approximately 0.9 fold; fold decrease of average GI50 relative to the platinum(IV) scaffold [4]: 4 fold; GI50 [4]: 104 ± 12 nM; log kw Values [5]: 1.91; Stability [6]: adequately stable in aqueous solution for up to 1 week |
| [Pt^IV(5,6-Me2phen)(SS-DACH)(5B3A)(OH)]^2+ [56-5B3A] | 0.75 | 0.04 | 0.42 | 0.10 | 0.02 | 0.03 | 0.28 | 0.55 | 274 RFU and 274 ± 9 RFU | 418 RFU and 418 ± 15 RFU | 474 ± 10 RFU | 321 ± 11 | 267 ± 8 | 148 ± 7 | 4.4 ± 1.6 | 88 ± 7 | 7.8 ± 2.2 | 33 ± 8.4 | 1.2 ± 0.6 | 2.75 | fold more potent than 56MESS (Du145 prostate; Du145 prostate): 0.3 fold; fold more potent than carboplatin (Du145 prostate; Du145 prostate): ≥ 12,500 fold; fold more potent than cisplatin (Du145 prostate; Du145 prostate): 1000 fold; fold more potent than oxaliplatin (Du145 prostate; Du145 prostate): at least 2400 fold; GI50 (BE2-C neuroblastoma): 150 ± 24 nM; GI50 (SJ-G2 glioblastoma): 110 ± 20 nM; GI50 (MIA pancreas): 12 ± 3 nM; fold more potent than 56MESS ([1]; ADDP): 0.5 fold; GI50 [1]: 6 ± 3 nM; fold decrease of average GI50 relative to the platinum(IV) scaffold [4]: 3.6 fold; GI50 [4]: 42 ± 7 nM; log kw Values [5]: 2.11; Stability [6]: adequately stable in aqueous solution for up to 1 week |
